Measured values: PMC11339918, “Extracellular Domain of IL-10 Receptor Chain-2 (IL-10R2) and Its Arginine-Containing Peptides Are Susceptible Substrates for Human Prostate Kallikrein-2 (KLK2)” (Biochemistry, 2024)

B1: recombinant IL-10: recombinant IL-10 (10 ng/mL) used in BMDM activation assay (protein, UniProt P18893 19-178, looked up)
Interleukin-10: SRGQYSREDNNCTHFPVGQSHMLLELRTAFSQVKTFFQTKDQLDNILLTDSLMQDFKGYLGCQALSEMIQFYLVEVMPQAEKHGPEIKEHLNSLGEKLKTLRMRLRRCHRFLPCENKSKAVEQVKSDFNKLQDQGVYKAMNEFDIFINCIEAYMMIKMKS

Tested on: BMDM cells
Test: BMDM activation with LPS/IFN-γ: NO, TNF-α and IL-12 p40 in supernatant
Assay type: cell-based, C57Bl/6 mice
Settings: 72 h, Griess, ELISA; for IL-10 inhibition of NO, TNF-α and IL-12 p40 generation in pretreated BMDM: pretreatment 7.5 μg/mL for 2 h, then LPS 200 ng/mL / IFN-γ 100 U/mL ± IL-10 10 ng/mL
Protocol: BMDM were obtained from C57Bl/6 mice and used as previously reported.[17]
For BMDM activation assays in vitro, cells were plated at a density of 10^5 cells/mL in 96-well plates at 37 °C in the absence and presence of KLK2 or KLK3 (7.5 μg/mL) for 2 h. The cells were then washed with PBS and treated with LPS (200 ng/mL)/IFN-γ (100 U/mL) stimuli in the presence or absence of recombinant IL-10 (10 ng/mL). The activation response of BMDM cells was evaluated after 72 h by quantification of nitric oxide (NO), TNF-α, and IL-12 p40 in the supernatant of BMDM cell cultures. NO was quantified using the Griess assay,[19] and the cytokines TNF-α and IL-12 p40 were quantified using sandwich enzyme-linked immunosorbent assay (ELISA) kits (B.D. Biosciences) following the manufacturer’s instructions.
Figure 3 KLK2 converts BMDM cells to a pro-inflammatory status characterized by maintaining NO, TNF-α, and IL-12p40 levels, even in the presence of recombinant IL-10. BMDM cells from C57Bl/6 mice were incubated in a 96-well plate (1 × 10^5 cells) with KLK2 (7.5 μg/mL) or KLK3 (7.5 μg/mL) for 2 h. After this, cells were washed and incubated with or without lipopolysaccharide (LPS) (200 ng/mL), IFN-γ (IFN), and recombinant IL-10 (IL10). (A) NO quantified in the culture supernatant by the Griess method. (B) TNF-α and (C) IL-12 p40 cytokines were quantified by ELISA in culture supernatants. MΦ = control macrophages. * p-value <0.001, analyzed by ANOVA with Tukey’s multiple comparisons.

Molecule | IL-10 inhibition of NO, TNF-α and IL-12 p40 generation in pretreated BMDM | generation of NO, TNF-α and IL-12 p40 in LPS/IFN-γ activated BMDM (IL-10 10 ng/mL, LPS 200 ng/mL / IFN-γ 100 U/mL)
KLK2: human prostate kallikrein-2, recombinant, from a baculovirus-insect cell line system | these IL-10 inhibitory effects were not observed | 
KLK3: human kallikrein-related peptidase 3 (PSA—prostatic-specific antigen) | did not show these effects | 
B1 |  | reduced the generation of NO, TNF-α, and IL-12 p40
